Experimental findings from ChEMBL document CHEMBL4825767, “Development of 2-(5,6,7-Trifluoro-1H-Indol-3-yl)-quinoline-5-carboxamide as a Potent, Selective, and Orally Available Inhibitor of Human Androgen Receptor Targeting Its Binding Function-3 for the Treatment of Castration-Resistant Prostate Cancer” (J Med Chem, 2021) are described below.

This series can be described thus: Half life in human liver microsomes at 2 uM in presence of NADPH measured up to 40 mins. Background: Liver microsomes are a subcellular fraction often used to study metabolism.

Consider `Fc1cc(Cl)c2[nH]cc(-c3ccc4ccccc4n3)c2c1`, for which the half-life (commonly the time needed for the level to fall by half in the phase considered) at 40 min, 2 µM was found to be 23 min.
